Source: patent publication US12122750B2, “AT2R antagonists and uses thereof” (Eli Lilly and Company, priority 2022, dated 2024)

Columns and labels:
rAT2R = rAT2R (Rattus norvegicus (Rat), UniProt P35351); test: Rat binding affinity, competitive radioligand binding assay (SPA), rAT2R HEK293 membranes; details: rat AT2R
Experimental: Membrane Preparation Protocol (hAT2R HEK293 and rAT2R HEK293)
Receptor Binding Protocol
The assays were performed with a scintillation proximity assay (SPA) method using polyvinyltoluene (PVT) wheat germ agglutinin-coupled SPA beads (Perkin Elmer Cat. #RPNQ0001). Assay buffer containing BSA (50 mM Tris-HCl, pH 7.5, 150 mM NaCl, 0.1% w/v fatty-acid free BSA) was used for preparing radioligand, membrane and SPA bead reagent dilution to working stock concentrations. Reference control and test compounds were diluted to obtain ten-point concentration response curves using a four-fold serial dilution protocol onto assay plates, dispensed acoustically from DMSO stock using automated ECHO instrument technology (Labcyte, Inc.). Concentration response curves were routinely generated with the highest final assay concentration for the reference angiotensin-II control at 50 nM, and the highest final assay concentration for the test compounds at 50 μM. […] The hAT2R membrane was combined with PVT-WGA SPA beads to obtain a final assay concentration of 0.25 μg/well hAT2R membrane+0.1 mg/well PVT-WGA SPA bead. And the hAT1R membrane PVT-WGA SPA bead final concentrations was 0.5 μg/well hAT1R membrane+0.1 mg/well PVT-WGA SPA bead. […] For all assays, radioligand addition was followed by the addition of membrane-SPA bead mixture, i.e., the hAT2R membrane-SPA bead mixture (30 μL), the rAT2R membrane-SPA bead mixture, or the AT1R membrane-SPA bead mixture (30 μL) into the assay plate. All dispensing steps were added using a Multiflo FX (Biotek, Inc.) bulk dispensing instrument. After reagent addition steps, assay plates were sealed, and plate contents mixed for one minute on a benchtop micro-plate shaker. Following a 10-hour incubation at room temperature to allow for bead settling and radioligand binding, bound radioactivity was quantitated using a Microbeta Trilux scintillation counter (Perkin Elmer) and expressed as counts per minute (CPM). The unlabeled angiotensin-II control was included on each plate as an experimental assay reference.
Compounds were tested in a 10-point concentration response curve (CRC) format, with each plate containing the positive control angiotensin-II positive reference compound, and experimental compounds. Maximum binding response (Max) was determined in 32 control wells per plate using assay buffer treatment only, and the minimum binding controls or nonspecific binding response (Min) was also determined in 32 wells per plate by the treatment with 50 nM angiotensin-II. All test sample concentration responses were normalized to the control response and calculated as a percent of the maximal response after correcting for nonspecific binding as shown below: % Specific inhibition=100%−[(CPM−Min)/(Max−Min)×100%]
Percent specific binding (y-axis) was plotted versus the log concentration of compound (x-axis).

AT2R [1] = target: T1, AT2R (Rattus norvegicus (Rat), UniProt P35351); test: AT2R ex vivo autoradiography receptor occupancy in rat adrenal sections after oral dosing; set-up: species or system Sprague Dawley rats; details: for IC50 / IC80: plasma concentration plotted vs % receptor occupancy, rat; for receptor occupancy at 0.3 mg/kg: oral dose 0.3 mg/kg; for receptor occupancy at 1 mg/kg: oral dose 1 mg/kg; for receptor occupancy at 3 mg/kg: oral dose 3 mg/kg; for receptor occupancy at 10 mg/kg: oral dose 10 mg/kg; for ex vivo IC50 (TER) / ex vivo IC80 (TER): rat receptor occupancy
T1 sequence (P35351 whole entry): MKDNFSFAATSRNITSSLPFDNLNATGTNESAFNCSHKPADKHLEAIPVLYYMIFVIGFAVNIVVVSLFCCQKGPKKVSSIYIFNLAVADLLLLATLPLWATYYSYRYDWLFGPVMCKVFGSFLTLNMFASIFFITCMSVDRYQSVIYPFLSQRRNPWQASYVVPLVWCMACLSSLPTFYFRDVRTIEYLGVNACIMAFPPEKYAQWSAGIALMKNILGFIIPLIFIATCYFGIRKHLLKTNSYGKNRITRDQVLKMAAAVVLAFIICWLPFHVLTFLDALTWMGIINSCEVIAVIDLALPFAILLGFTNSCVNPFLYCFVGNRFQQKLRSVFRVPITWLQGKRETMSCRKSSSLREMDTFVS
Experimental: The ability for a compound to engage its target may be measured by determining compound's receptor occupancy. An ex vivo autoradiography assay was conducted as described herein.
Twenty male Sprague Dawley rats (140-150 gms, Envigo) were maintained under controlled laboratory conditions on a 12 hr light cycle with ad lib access to food and water. […] Following a pre-determined survival time, plasma and adrenals were collected and frozen at −80° C. until analyzed. Frozen 20 μm sections of an adrenal from each animal were collected onto gelatin-coated slides and stored at −80° C. […] The specific ligand binding for each animal is calculated by subtracting the non-specific binding from the total bound.

AT2R [2] = target: T1, AT2R; test: Inhibition of C21-induced increase in dermal blood flow (laser Doppler imaging); assay type: in vivo, Sprague Dawley rats

Chain of rAT2R (P35351 whole entry): as above

Ki (rAT2R) [nM]	IC50 (AT2R [1]) [nM]	IC80 (AT2R [1]) [nM]	receptor occupancy at 0.3 mg/kg (AT2R [1]; rat adrenal, read-out: % RO) [%]	receptor occupancy at 1 mg/kg (AT2R [1]; rat adrenal, read-out: % RO) [%]	receptor occupancy at 3 mg/kg (AT2R [1]; rat adrenal, read-out: % RO) [%]	receptor occupancy at 10 mg/kg (AT2R [1]; rat adrenal, read-out: % RO) [%]	ex vivo IC50 (TER) (AT2R [1])	ex vivo IC80 (TER) (AT2R [1])	mode of action at AT2R (inhibition of C21-induced dermal blood flow) (AT2R [2]; AT2R agonist C21 intradermal)	inhibition at 0.3 mg/kg (AT2R [2]; dose 0.3 mg/kg, C21-induced increase in dermal blood flow) [%]	inhibition at 3 mg/kg (AT2R [2]; dose 3 mg/kg, C21-induced increase in dermal blood flow) [%]	inhibition at 10 mg/kg (AT2R [2]; C21-induced increase in dermal blood flow) [%]	inhibition at 10 mg/kg (AT2R [2]; second, unlabelled column under % Inhibition) [%]	receptor occupancy at 0.01 mg/kg (AT2R [1]; rat adrenal, oral dose 0.01 mg/kg, read-out: % RO) [%]	receptor occupancy at 0.03 mg/kg (AT2R [1]; rat adrenal, oral dose 0.03 mg/kg, read-out: % RO) [%]	receptor occupancy at 0.1 mg/kg (AT2R [1]; rat adrenal, oral dose 0.1 mg/kg, read-out: % RO) [%]	Structure (SMILES)
2.19	0.821	3.34	37.8	61.9	83.5	90.5	0.375	1.525	acting as a antagonist	49.6	62.9	74.3	95.6				O=C(N1CCC(CC(=O)N(c2ccccc2)c2ccccc2)(C(=O)O)CC1)N1CCc2ccccc21 [Example 3, 1-(indoline-1-carbonyl)-4-[2-oxo-2-(N-phenylanilino)ethyl]piperidine-4-carboxylic acid]
0.614	0.114	0.449	79.3	93.2	90.9	93	0.186	0.731						16.3	65	76.3	CN(C(=O)N1CCC(CC(=O)N(c2ccccc2)C(C2CC2)C2CC2)(C(=O)O)CC1)c1ccc(F)cc1 [Example 18, 4-[2-[N-(dicyclopropylmethyl)anilino]-2-oxo-ethyl]-1-[(4-fluorophenyl)-methyl-carbamoyl]piperidine-4-carboxylic acid]
